Measurements: US7982057B2, “Compound of stemphones and production thereof” (The Kitasato Institute, priority 2006, dated 2011)
Values after ≈ are worked out from the molar mass of the structure shown.

Key:
Solubility in solvent = format: physicochemical
Jurkat cells = assay: Cytotoxicity on Jurkat cells by MTT method; format: cell-based; conditions: Homo sapiens, 48 hours
Procedure: Method for Evaluation of Cytotoxicity
Evaluation of cytotoxicity on Jurkat cells were performed by MTT method (Mosmaan, et al. J. Immunol. Methods, 65: 55-63, 1983). Cultured liquid of Jurkat cells were suspended in RPMI-1640 medium (Iwaki & Co., Ltd., Japan) to give suspension with 4×10^5 cells/ml, and the suspension 0.05 ml was seeded in each well of 96 well microplate (Corning Corp.). Subsequently, stemphone D substance, stemphone E substance, stemphone E1 substance, stemphone E2 substance, stemphone E3 substance or stemphone F substance (0.05 ml, 2% methanol/PRMI-1640 medium) was added and incubated at 37° C. for 48 hours in 5% carbon dioxide gas incubator. Then MTT reagent (SIGMA Inc.) dissolved in PBS to give concentration 5.5 mg/ml, 0.01 ml was added and reacted at 37° C. for 4 hours. After the reaction was performed, cell-lysing solution (40%, N-dimethylformamide (Kanto Chemical Co., Inc., Japan), 20% sodiumdodecyl sulfate (Wako Pure Chemical Industries, Ltd., Japan) 2% acetic acid (Kanto Chemical Co., Inc., Japan), 0.03% hydrochloric acid (Kanto Chemical Co., Inc., Japan) in purified water) 0.09 ml was added, and stirred at room temperature for 2 hours, then absorption at 550 nm was measured by using ELx 808 (BIO-TEK Instruments Inc.). As compared with stemphone C substance previously reported by the present inventor (ratio: 1.0), about 4-fold to 60-fold reduction of toxicity were confirmed.

[1] = test system: methicillin resistant Staphylococcus aureus K24; assay: Enhancing effect for activity of imipenem by paper disk method; format: cell-based; conditions: 10 μg disc, 37° C. for 20 hours; for inhibitory zone in the presence of imipenem: MHA medium with imipenem final concentration 10 μg/ml; for inhibitory zone, substance alone: MHA medium without imipenem
Procedure: Biological properties of compound of stemphones of the present invention are described in detail as follows. Method for evaluation of enhancing effect for activity of imipenem by paper disk method
Clinically isolated strain of methicillin resistant Staphylococcus aureus K24 was used as a test organism. Staphylococcus aureus was cultured in Mueller-Hinton broth (2.1% w/v) (DIFCO) at 37° C. for 20 hours, and was suspended corresponding to 0.5 Mc FARLAND (about 10^8 CFU/ml) in the same medium.
Smearing was performed by using sterilized cotton swab (Kawamoto Sangyo K.K., Japan) according to a method of National Committee for Laboratory Standard, NCCLS, U.S.A. Antibacterial activities against test organism on various media were expressed with a unit in mm of a diameter of inhibition zone after incubation with the paper disc (thin disc, […], ADVANTEC Inc.) method at 37° C. for 20 hours.

Compound | Solubility in methanol and chloroform (Solubility in solvent) | Solubility in water (Solubility in solvent) | IC50 (Jurkat cells) [µg/mL] | inhibitory zone in the presence of imipenem [1] [mm] | inhibitory zone, substance alone [1]
C/C=C(\C)C(OC(C)=O)C(C)C1=CC(=O)C2=C(OC3(C)CCC4OC(C(C)(C)O)CC(O)C4(C)C3C2)C1=O (stereo not drawn) [stemphone D substance] | Soluble | insoluble | 1.8 (≈ 3.39 µM) | 25 | not observed
C/C=C(\C)C(OC(C)=O)C(C)C1=CC(=O)C2=C(OC3(C)CCC4OC(C(C)(C)O)CC(O)C4(C)C3C2O)C1(O)CC(C)=O (stereo not drawn) [stemphone F substance] | Soluble | insoluble | 2.7 (≈ 4.46 µM) | 20 | not observed
C/C=C(\C)C(OC(C)=O)C(C)C1=CC(=O)C2=C(OC3(C)CCC4OC(C(C)(C)O)CC(O)C4(C)C3=C2)C1=O (stereo not drawn) [stemphone E3 substance] | Soluble | insoluble | 2.6 (≈ 4.92 µM) | 20 | not observed

Now from value to compound, other results behind:

Solubility in methanol and chloroform (Solubility in solvent) | Solubility in water (Solubility in solvent) | Compound | IC50 (Jurkat cells) [µg/mL] | inhibitory zone in the presence of imipenem [1] [mm] | inhibitory zone, substance alone [1]
Soluble | insoluble | C/C=C(\C)C(OC(C)=O)C(C)c1cc(O)c2c(c1O)OC1(C)CCC3OC(C(C)(C)O)CC(O)C3(C)C1C2O (stereo not drawn) [stemphone E substance] | 3.6 (≈ 6.56 µM) | 22 | not observed
Soluble | insoluble | C/C=C(\C)C(OC(C)=O)C(C)c1cc(OC)c2c(c1O)OC1(C)CCC3OC(C(C)(C)O)CC(O)C3(C)C1C2O (stereo not drawn) [stemphone E1 substance] | 26.2 (≈ 46.6 µM) | 15 | not observed
Soluble | insoluble | C/C=C(\C)C(OC(C)=O)C(C)c1cc(O)c2c(c1O)OC1(C)CCC3OC(C(C)(C)O)CC(O)C3(C)C1=C2 (stereo not drawn) [stemphone E2 substance] | 4.4 (≈ 8.29 µM) | 22 | not observed
